Assay [1] addresses T1, CypD (Homo sapiens, UniProt P30405). Description: CypD binding assay (competition fluorescence polarisation with fluorescein-labelled cyclosporin). Here is the method: The binding capacity of the compounds were measured using a competition Fluorescence-Polarisation based assay with fluorescine labelled cyclosporin. The protocol used was adapted from Hausch et al, Med Chem lett 2010, p 536.
(In general: Fluorescence polarisation rises when a labelled molecule tumbles more slowly, as on binding a larger partner.)

Assay [2] deals with T1, CypD. Description: SPR binding. The settings on record: SPR surface; read-out: SPR CypD (KDSS).
Text: Binding was confirmed on an SPR surface using a protocol adapted from Mori et al., J. Biomolecular Screening, 2009 p 419.

Some results are limits rather than exact numbers.

T1 sequence (P30405 30-207): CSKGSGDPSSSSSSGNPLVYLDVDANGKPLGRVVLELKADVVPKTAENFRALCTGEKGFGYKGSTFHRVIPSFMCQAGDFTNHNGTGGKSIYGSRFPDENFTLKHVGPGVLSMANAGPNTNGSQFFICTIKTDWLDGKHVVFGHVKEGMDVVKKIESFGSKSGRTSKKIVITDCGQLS

On CypD [1], “3-((1R,9R,10S)-10-Hydroxy-12-oxa-8-aza-tricyclo[7.3.1.02,7]trideca-2(7),3,5-trien-4-yl)-N-(2-oxo-2-pyrrolidin-1-yl-ethyl)-propionamide [Compound 26]” came in with an IC50 of 1000 to 100000 nM. For the same compound, the Kd at CypD [2] was in the range of 1000 to 100000 nM.

Take `CSc1ccccc1[C@H]1CCCN1C(=O)CCC(=O)NCc1ccc2c(c1)[C@H]1C[C@@H](N2)[C@H](O)CO1` [Compound 2, N-((1R,9R,10S)-10-Hydroxy-12-oxa-8-aza-tricyclo[7.3.1.02,7]trideca-2,4,6-trien-4-ylmethyl)-4-[(R)-2-(2-methylsulfanyl-phenyl)-pyrrolidin-1-yl]-4-oxo-butyramide]: the IC50 at CypD [1] is less than 1000 nM. At CypD [2], the Kd was less than 1000 nM.

Take `CCN1Cc2cc(CNC(=O)NCC(=O)N3CCC[C@@H]3c3ccccc3SC)ccc2NCCC1=O` [Compound 3, 1-(5-Ethyl-4-oxo-1,2,3,4,5,6-hexahydro-benzo[b][1,5]diazocin-8-ylmethyl)-3-{2-[(R)-2-(2-methylsulfanyl-phenyl)-pyrrolidin-1-yl]-2-oxo-ethyl}-urea]: the 50% inhibitory concentration (IC50) on CypD [1] was less than 1000 nM. Also, the Kd at CypD [2] is less than 1000 nM.

`O=C(NCC(=O)N1CCCC1c1ccccc1C(F)(F)F)NCc1ccc2c(c1)[C@H]1C[C@@H](N2)[C@H](O)CO1` (some centres unmarked) [Compound 4] gave an IC50 at CypD [1] of less than 1000 nM. Further, the Kd on CypD [2] was less than 1000 nM.

Regarding `CSc1ccccc1[C@H]1CCCN1C(=O)CNC(=O)CCc1ccc2c(c1)[C@H]1C[C@@H](N2)[C@H](O)CO1` [Compound 5, 3-((1R,9R,10S)-10-Hydroxy-12-oxa-8-aza-tricyclo[7.3.1.02,7]trideca-2(7),3,5-trien-4-yl)-N-{2-[(R)-2-(2-methylsulfanyl-phenyl)-pyrrolidin-1-yl]-2-oxo-ethyl}-propionamide], at CypD [1], the concentration for half-maximal inhibition (IC50) is less than 1000 nM. In addition, at CypD [2], the Kd is less than 1000 nM.

For the compound `C[C@H](NC(=O)CCc1ccc2c(c1)[C@H]1C[C@@H](N2)[C@H](O)CO1)C(=O)N1CCCC1` [Compound 6, 3-((2R,3S,6R)-3-hydroxy-2,3,4,6-tetrahydro-1H-2,6-methanobenzo[c][1,5]oxazocin-8-yl)-N—((S)-1-oxo-1-(pyrrolidin-1-yl)propan-2-yl)propanamide], the IC50 on CypD [1] was 1000 to 100000 nM. Also, the Kd on CypD [2] is 1000 to 100000 nM.

Compound `O=C(NCC(=O)N1CCC[C@@H]1C(F)(F)F)NCc1ccc2c(c1)[C@H]1C[C@@H](N2)[C@H](O)CO1` [Compound 8, 1-(((2R,3S,6R)-3-hydroxy-2,3,4,6-tetrahydro-1H-2,6-methanobenzo[c][1,5]oxazocin-8-yl)methyl)-3-(2-oxo-2-((R)-2-(trifluoromethyl)pyrrolidin-1-yl)ethyl)urea] came in with a concentration for half-maximal inhibition (IC50) on CypD [1] of 1000 to 100000 nM. For the same compound, at CypD [2], the Kd lay within 1000 to 100000 nM.

For the compound `O=C(NCC(=O)N1CCCC1c1ccccn1)NCc1ccc2c(c1)[C@H]1C[C@@H](N2)[C@H](O)CO1` (stereo partly drawn) [Compound 9, 1-(((2R,3S,6R)-3-hydroxy-2,3,4,6-tetrahydro-1H-2,6-methanobenzo[c][1,5]oxazocin-8-yl)methyl)-3-(2-oxo-2-(2-(pyridin-2-yl)pyrrolidin-1-yl)ethyl)urea], at CypD [1], the IC50 was in the range of 1000 to 100000 nM. Further, at CypD [2], the Kd is less than 1000 nM.

Compound `CCN1Cc2cc(CCC(=O)NCC(=O)N3CCC[C@@H]3c3ccccc3SC)ccc2NCCC1=O` [Compound 11, 3-(5-Ethyl-4-oxo-1,2,3,4,5,6-hexahydro-benzo[b][1,5]diazocin-8-yl)-N-{2-[(R)-2-(2-methylsulfanyl-phenyl)-pyrrolidin-1-yl]-2-oxo-ethyl}-propionamide] had an IC50 on CypD [1] of 1000 to 100000 nM. In addition, the Kd on CypD [2] fell in the range of 1000 to 100000 nM.

In the case of `O=C(NCC(=O)N1CCC[C@H]1CO)NCc1ccc2c(c1)[C@H]1C[C@@H](N2)[C@H](O)CO1` [Compound 13, 1-(((2R,3S,6R)-3-hydroxy-2,3,4,6-tetrahydro-1H-2,6-methanobenzo[c][1,5]oxazocin-8-yl)methyl)-3-(2-((S)-2-(hydroxymethyl)pyrrolidin-1-yl)-2-oxoethyl)urea], the 50% inhibitory concentration (IC50) at CypD [1] was in the range of 1000 to 100000 nM. Further, the Kd at CypD [2] lay in the range of 1000 to 100000 nM.

Take `O=C(NCC(=O)N1CCC[C@@H]1CO)NCc1ccc2c(c1)[C@H]1C[C@@H](N2)[C@H](O)CO1` [Compound 14, 1-(((2R,3S,6R)-3-hydroxy-2,3,4,6-tetrahydro-1H-2,6-methanobenzo[c][1,5]oxazocin-8-yl)methyl)-3-(2-((R)-2-(hydroxymethyl)pyrrolidin-1-yl)-2-oxoethyl)urea]: the half-inhibitory concentration (IC50) at CypD [1] is 1000 to 100000 nM. The Kd at CypD [2] fell in the range of 1000 to 100000 nM.

The compound `CCN1Cc2cc(CNC(=O)NCC(=O)N3CCCC3c3ccccc3C(F)(F)F)ccc2NCCC1=O` (centres unmarked) [Compound 15, 1-(5-Ethyl-4-oxo-1,2,3,4,5,6-hexahydro-benzo[b][1,5]diazocin-8-ylmethyl)-3-{2-oxo-2-[2-(2-trifluoromethyl-phenyl)-pyrrolidin-1-yl]-ethyl}-urea] gave a half-inhibitory concentration (IC50) on CypD [1] of 1000 to 100000 nM. The Kd on CypD [2] was in the range of 1000 to 100000 nM.

As for `CSc1ccccc1[C@H]1CCCN1C(=O)CN(C)C(=O)NCc1ccc2c(c1)[C@H]1C[C@@H](N2)[C@H](O)CO1` [Compound 16, 3-((1R,9R,10S)-10-Hydroxy-12-oxa-8-aza-tricyclo[7.3.1.02,7]trideca-2(7),3,5-trien-4-ylmethyl)-1-methyl-1-{2-[(R)-2-(2-methylsulfanyl-phenyl)-pyrrolidin-1-yl]-2-oxo-ethyl}-urea], the concentration for half-maximal inhibition (IC50) at CypD [1] is 1000 to 100000 nM. Besides, at CypD [2], the Kd is 1000 to 100000 nM.

`O=C(NCC(=O)N1CCCC1c1ccccc1C(F)(F)F)NCc1ccc2c(c1)[C@@H]1C[C@H](N2)[C@H](O)CO1` (stereo partly drawn) [Compound 17, 1-(((2S,3S,6S)-3-hydroxy-2,3,4,6-tetrahydro-1H-2,6-methanobenzo[c][1,5]oxazocin-8-yl)methyl)-3-(2-oxo-2-(2-(2-(trifluoromethyl)phenyl)pyrrolidin-1-yl)ethyl)urea] gave a half-inhibitory concentration (IC50) at CypD [1] of 1000 to 100000 nM. The Kd at CypD [2] was 1000 to 100000 nM.

On to `O=C(NCC(=O)N1CCCC1c1cccnc1)NCc1ccc2c(c1)[C@H]1C[C@@H](N2)[C@H](O)CO1` (stereo partly drawn) [Compound 18, 1-((1R,9R,10S)-10-Hydroxy-12-oxa-8-aza-tricyclo[7.3.1.02,7]trideca-2(7),3,5-trien-4-ylmethyl)-3-[2-oxo-2-(2-pyridin-3-yl-pyrrolidin-1-yl)-ethyl]-urea], for which the IC50 on CypD [1] is 1000 to 100000 nM. Moreover, the Kd at CypD [2] lay within 1000 to 100000 nM.

Turning to `CCN1Cc2cc(CCC(=O)NCC(=O)N3CCCC3c3ccccc3C(F)(F)F)ccc2NCCC1=O` (centres unmarked) [Compound 19, 3-(5-Ethyl-4-oxo-1,2,3,4,5,6-hexahydro-benzo[b][1,5]diazocin-8-yl)-N-{2-oxo-2-[2-(2-trifluoromethyl-phenyl)-pyrrolidin-1-yl]-ethyl}-propionamide], the IC50 at CypD [1] fell in the range of 1000 to 100000 nM. The Kd at CypD [2] lay in the range of 1000 to 100000 nM.

Compound `CN(C(=O)CNC(=O)NCc1ccc2c(c1)[C@H]1C[C@@H](N2)[C@H](O)CO1)C1CCCC1` [Compound 20, N-cyclopentyl-2-(3-(((2R,3S,6R)-3-hydroxy-2,3,4,6-tetrahydro-1H-2,6-methanobenzo[c][1,5]oxazocin-8-yl)methyl)ureido)-N-methylacetamide] registered a half-maximal inhibitory concentration (IC50) on CypD [1] of 1000 to 100000 nM. Further, the Kd at CypD [2] was 1000 to 100000 nM.

For `CSc1ccccc1[C@H]1CCCN1C(=O)CNC(=O)NC(C)c1ccc2c(c1)CCCC(=O)N2` (stereo partly drawn) [Compound 21, 1-{2-[(R)-2-(2-Methylsulfanyl-phenyl)-pyrrolidin-1-yl]-2-oxo-ethyl}-3-[1-(2-oxo-2,3,4,5-tetrahydro-1H-benzo[b]azepin-7-yl)-ethyl]-urea], the IC50 on CypD [1] lay in the range of 1000 to 100000 nM. Moreover, the Kd at CypD [2] was 1000 to 100000 nM.

In the case of `CCN1Cc2cc(CNC(=O)NCC(=O)N3CCC[C@H]3CO)ccc2NCCC1=O` [Compound 22, 1-(5-Ethyl-4-oxo-1,2,3,4,5,6-hexahydro-benzo[b][1,5]diazocin-8-ylmethyl)-3-[2-((S)-2-hydroxymethyl-pyrrolidin-1-yl)-2-oxo-ethyl]-urea], at CypD [1], the IC50 lay in the range of 1000 to 100000 nM. Further, the Kd on CypD [2] fell in the range of 1000 to 100000 nM.

`CSc1ccccc1[C@H]1CCCN1C(=O)CNC(=O)CCc1ccc2c(c1)[C@@H]1C[C@H](N2)[C@H](O)CO1` [Compound 23, 3-((2S,3S,6S)-3-hydroxy-2,3,4,6-tetrahydro-1H-2,6-methanobenzo[c][1,5]oxazocin-8-yl)-N-(2-((R)-2-(2-(methylthio)phenyl)pyrrolidin-1-yl)-2-oxoethyl)propanamide] showed an IC50 at CypD [1] of 1000 to 100000 nM. Also, the Kd at CypD [2] is 1000 to 100000 nM.

As for `CCN1Cc2cc(CNC(=O)NCC(=O)N3CCC[C@@H]3C(F)(F)F)ccc2NCCC1=O` [Compound 24, 1-(5-Ethyl-4-oxo-1,2,3,4,5,6-hexahydro-benzo[b][1,5]diazocin-8-ylmethyl)-3-[2-oxo-2-((R)-2-trifluoromethyl-pyrrolidin-1-yl)-ethyl]-urea], the IC50 at CypD [1] was in the range of 1000 to 100000 nM. Moreover, on CypD [2], the Kd lay in the range of 1000 to 100000 nM.

As to `CCN1Cc2cc(CCC(=O)NCC(=O)N3CCCC4(CCCCC4)C3)ccc2NCCC1=O` [Compound 25, N-[2-(2-Aza-spiro[5.5]undec-2-yl)-2-oxo-ethyl]-3-(5-ethyl-4-oxo-1,2,3,4,5,6-hexahydro-benzo[b][1,5]diazocin-8-yl)-propionamide], the IC50 on CypD [1] fell in the range of 1000 to 100000 nM. Moreover, on CypD [2], the Kd lay in the range of 1000 to 100000 nM.

On CypD [1], `CCN1Cc2cc(CCC(=O)NCC(=O)N3CCCC3)ccc2NCCC1=O` [Compound 27, 3-(5-Ethyl-4-oxo-1,2,3,4,5,6-hexahydro-benzo[b][1,5]diazocin-8-yl)-N-(2-oxo-2-pyrrolidin-1-yl-ethyl)-propionamide] returned a half-maximal inhibitory concentration (IC50) of 1000 to 100000 nM. Besides, the Kd at CypD [2] was in the range of 1000 to 100000 nM.

In turn, `CCN1Cc2cc(CCC(=O)NCC(=O)N3CCCC3c3ccccn3)ccc2NCCC1=O` (centres unmarked) [Compound 28, 3-(5-Ethyl-4-oxo-1,2,3,4,5,6-hexahydro-benzo[b][1,5]diazocin-8-yl)-N-[2-oxo-2-(2-pyridin-2-yl-pyrrolidin-1-yl)-ethyl]-propionamide] came in with a 50% inhibitory concentration (IC50) at CypD [1] of 1000 to 100000 nM. The Kd on CypD [2] was in the range of 1000 to 100000 nM.

`CCN1Cc2cc(CCC(=O)N[C@@H](CO)C(=O)N3CCCC3)ccc2NCCC1=O` [Compound 29, 3-(5-Ethyl-4-oxo-1,2,3,4,5,6-hexahydro-benzo[b][1,5]diazocin-8-yl)-N—((S)-1-hydroxymethyl-2-oxo-2-pyrrolidin-1-yl-ethyl)-propionamide] came in with an IC50 at CypD [1] of 1000 to 100000 nM. The Kd on CypD [2] was 1000 to 100000 nM.

The IC50 is the midpoint of a concentration-inhibition curve.
